Laboratory results: patent US5106407A, “Iodones and methods for antimicrobial use” (priority 1989, dated 1992)
Converted amounts (≈) assume the structure as drawn. Like-named read-outs stand apart in the source and are kept apart here.

Key:
[1] = tested on: Bacillus subtilis; test: minimum inhibitory concentration (MIC), agar dilution; format: cell-based; conditions: for MIC: Bacillus subtilis
Method: (§1) The minimum inhibitory concentration (MIC) for the compound of Example 19, i.e., (2-nitrophenyl)-iodonium 2,2-dimethyl-4,6-dioxo-1,3-dioxan-5-ylide was determined for 9 bacteria (using nutrient agar) and 5 yeast and fungi (using malt yeast agar). A one percent solution of this test compound (i.e., the compound of Example 19) was prepared in a mixture of acetone-water. Nutrient agar was prepared at pH 6.8 using deionized water according to standard Difco procedures. Malt yeast agar was prepared by adding 3 g Bacto yeast extract and 42 g Bacto Malt agar per liter of deionized water. The agar (nutrient agar when testing with bacteria and malt yeast agar when testing with yeast and fungi) was dispensed in 30 mL aliquots into 25×200 millimeter (mm) test tubes, capped and autoclaved for 15 min at 115° C. The test tubes containing the agar were cooled in a water bath until the temperature of the agar was 48° C. and then an appropriate amount of the one percent solution of the test compound was added (except in the controls where no test compound was added with the acetone-water) to the respective test tubes so that final concentrations of 500, 250, 100, 50, 25, 10, 5, 2.5, 1.0 and 0 parts per million (ppm) of the test compound in the agar were obtained. The agar solutions were each mixed and poured into individual petri plates so that each petri plate contained agar having a known concentration of test compound dispersed therein. After drying for 24 hr, the petri plates were inoculated with bacteria when the petri plates contained nutrient broth agar or with fungi and yeast when the petri plates contained malt yeast agar.
(§2) The inoculation with bacteria was accomplished using the following procedure. Twenty-four hr cultures of each of the bacteria were prepared by incubating the respective bacteria in tubes containing nutrient broth for 24 hr at 30° C. in a shaker. Dilutions of each of the 24 hr cultures were made so that 9 separate suspensions (one for each of the 9 test bacteria) were made, each containing about 10^8 colony forming units (CFU) per mL of suspension of a particular bacteria. Aliquots of 0.3 mL of each of the above suspensions were used to fill individual wells of a Steer's Replicator. For each microbial suspension, 0.3 mL was used to fill 3 wells (i.e., 3 wells of 0.3 mL each) so that for the 9 different bacteria 27 wells were filled. The Steer's Replicator was then used to inoculate the petri plates.
(§3) The petri plates were incubated at 30° C. for 48 hr and then read to determine if the test compound (i.e., the compound of Example 19) which was incorporated into the agar prevented growth of the respective bacteria. The minimum inhibitory concentration (MIC) for each bacteria was defined as the lowest concentration of the test compound which prevented growth of that bacteria.
(§4) In a similar procedure, the MIC (in ppm) of the compound of Example 11 (i.e., (2-nitrophenyl)-iodonium 2,6-dioxocyclohexylide) for various organisms was determined at an acid pH (about 6.8) and at an alkaline pH (about 8.2).
(§5) Using similar procedures, the MIC's (in ppm) of various compounds of Formula I and/or Formula II were determined for the organisms Enterobacter aerogenes and Bacillus subtilis in a neutral solution (pH about 6.8) and in an alkaline medium (pH about 8.2).

[2] = tested on: Enterobacter aerogenes; test: as above; format: cell-based; conditions: for MIC: Klebsiella aerogenes
Method: as §1, §2, §3, §4, §5

[3] = alkaline growth medium (pH = 8.2), read-out: MIC (ABS)
[4] = neutral growth medium (pH = 6.8), read-out: MIC (NBS)
[5] = alkaline growth medium (pH = 8.2), read-out: MIC (AEA)
[6] = neutral growth medium (pH = 6.8), read-out: MIC (NEA)
[7] = alkaline growth medium (pH = 8.2)
[8] = neutral growth medium (pH = 6.8)

## O=C1CCC(=O)[C-]1[I+]c1ccccc1[N+](=O)[O-] [Example 10, (2-Nitrophenyl)-iodonium 2,5-dioxocyclopentyl-1-ylide]
[1]; [3]
  MIC: > 500 mg/L
[1]; [4]
  MIC: 25 mg/L (≈ 72.4 µM)
[2]; [5]
  MIC: > 500 mg/L
[2]; [6]
  MIC: ≤ 10 mg/L

## CC1(C)CC(=O)[C-]([I+]c2ccccc2S(C)(=O)=O)C(=O)C1 [Example 12, ((2-Methylsulfonyl)phenyl)-iodonium 4,4-dimethyl-2,6-dioxocyclohexan-1-ylide]
[1]; [3]
  MIC: 100 mg/L (≈ 238 µM)
[1]; [4]
  MIC: 250 mg/L (≈ 595 µM)
[2]; [5]
  MIC: > 500 mg/L
[2]; [6]
  MIC: > 500 mg/L

## CC1(C)CC(=O)[C-]([I+]c2ccccc2[N+](=O)[O-])C(=O)C1 [Example 14, (2-Nitrophenyl)-iodonium 4,4-dimethyl-2,6-dioxocyclohexylide]
[1]; [3]
  MIC: ≤ 1 mg/L
[1]; [4]
  MIC: 2.5 mg/L (≈ 6.46 µM)
[2]; [5]
  MIC: ≤ 1 mg/L
[2]; [6]
  MIC: 2.5 mg/L (≈ 6.46 µM)

## CC1CC(=O)[C-]([I+]c2ccccc2[N+](=O)[O-])C(=O)C1 [Example 15, (2-Nitrophenyl)-iodonium 4-methyl-2,6-dioxocyclohexan-1-ylide]
[1]; [3]
  MIC: ≤ 10 mg/L
[1]; [4]
  MIC: ≤ 10 mg/L
[2]; [5]
  MIC: 100 mg/L (≈ 268 µM)
[2]; [6]
  MIC: ≤ 10 mg/L

## Cc1ccc([I+][C-]2C(=O)OC(C)(C)OC2=O)c([N+](=O)[O-])c1 [Example 16, (4-Methyl-2-nitrophenyl)-iodonium 2,2-dimethyl-4,6-dioxo-1,3-dioxan-5-ylide]
[1]; [3]
  MIC: 5 mg/L (≈ 12.3 µM)
[1]; [4]
  MIC: 2.5 mg/L (≈ 6.17 µM)
[2]; [5]
  MIC: 10 mg/L (≈ 24.7 µM)
[2]; [6]
  MIC: 2.5 mg/L (≈ 6.17 µM)

## Cc1ccc(I=C2C(=O)OC(C)(C)OC2=O)c([N+](=O)[O-])c1C [Example 17, (3,4-Dimethyl-2-nitrophenyl)-iodonium 2,2-dimethyl-4,6-dioxo-1,3-dioxan-5-ylide]
[1]; [7]
  MIC (ABS): < 10 ppm
[1]; [8]
  MIC (NBS): < 10 ppm
[2]; [7]
  MIC (AEA): 25 ppm
[2]; [8]
  MIC (NEA): 25 ppm

## CC1(C)OC(=O)[C-]([I+]c2ccc(Cl)cc2[N+](=O)[O-])C(=O)O1 [Example 18, (4-chloro-2-nitrophenyl)-iodonium 2,2-dimethyl-4,6-dioxo-1,3-dioxan-5-ylide]
[1]; [3]
  MIC: 250 mg/L (≈ 587 µM)
[1]; [4]
  MIC: 100 mg/L (≈ 235 µM)
[2]; [5]
  MIC: 250 mg/L (≈ 587 µM)
[2]; [6]
  MIC: 100 mg/L (≈ 235 µM)

## COc1ccc([I+][C-]2C(=O)OC(C)(C)OC2=O)c([N+](=O)[O-])c1 [Example 20, (4-Methoxy-2-nitrophenyl)-iodonium 2,2-dimethyl-4,6-dioxo-1,3-dioxan-5-ylide]
[1]; [3]
  MIC: 25 mg/L (≈ 59.4 µM)
[1]; [4]
  MIC: ≤ 10 mg/L
[2]; [5]
  MIC: 25 mg/L (≈ 59.4 µM)
[2]; [6]
  MIC: ≤ 10 mg/L

## CC1(C)OC(=O)[C-]([I+]c2ccccc2S(C)(=O)=O)C(=O)O1 [Example 21, ((2-Methylsulfonyl)phenyl)-iodonium 2,2-dimethyl-4,6-dioxo-1,3-dioxan-5-ylide]
[1]; [3]
  MIC: 50 mg/L (≈ 118 µM)
[1]; [4]
  MIC: 25 mg/L (≈ 58.9 µM)
[2]; [5]
  MIC: > 500 mg/L
[2]; [6]
  MIC: > 500 mg/L

## O=c1oc2ccc(F)cc2c(=O)[c-]1[I+]c1ccccc1[N+](=O)[O-] [Example 22, (2-Nitrophenyl)-iodonium 6-fluoro-3,4-dihydro-2,4-dioxo-2H-benzopyran-3-ylide]
[1]; [3]
  MIC: 100 mg/L (≈ 234 µM)
[1]; [4]
  MIC: ≤ 10 mg/L
[2]; [5]
  MIC: 250 mg/L (≈ 585 µM)
[2]; [6]
  MIC: ≤ 10 mg/L

## O=c1oc2ccc(Br)cc2c(=O)[c-]1[I+]c1ccccc1[N+](=O)[O-] [Example 23, (2-Nitrophenyl)-iodonium 6-bromo-3,4-dihydro-2,4-dioxo-2H-benzopyran-3-ylide]
[1]; [3]
  MIC: 250 mg/L (≈ 512 µM)
[1]; [4]
  MIC: 100 mg/L (≈ 205 µM)
[2]; [5]
  MIC: > 500 mg/L
[2]; [6]
  MIC: > 500 mg/L

## O=C(O)c1ccc2oc(=O)[c-]([I+]c3ccccc3[N+](=O)[O-])c(=O)c2c1 [Example 26, (2-Nitrophenyl)-iodonium 6-carboxy-3,4-diohydro-2,4-dioxo-2H -benzopyran-3-ylide]
[1]; [3]
  MIC: 250 mg/L (≈ 552 µM)
[1]; [4]
  MIC: ≤ 10 mg/L
[2]; [5]
  MIC: 250 mg/L (≈ 552 µM)
[2]; [6]
  MIC: 250 mg/L (≈ 552 µM)

## CS(=O)(=O)c1ccccc1[I+][c-]1c(=O)oc2ccc(Cl)cc2c1=O [Example 27, ((2-Methylsulfonyl)phenyl)-iodonium 6-chloro-3,4-dihydro-2,4-dioxo-2H-benzopyran-3-ylide]
[1]; [3]
  MIC: ≤ 10 mg/L
[1]; [4]
  MIC: ≤ 10 mg/L
[2]; [5]
  MIC: > 500 mg/L
[2]; [6]
  MIC: > 500 mg/L

## COc1ccc2oc(=O)[c-]([I+]c3ccccc3S(C)(=O)=O)c(=O)c2c1 [Example 28, ((2-Methylsulfonyl)phenyl)-iodonium 3,4-dihydro-6-methoxy-2,4-dioxo-2H-benzopyran-3-ylide]
[1]; [3]
  MIC: ≤ 10 mg/L
[1]; [4]
  MIC: ≤ 10 mg/L
[2]; [5]
  MIC: > 500 mg/L
[2]; [6]
  MIC: > 500 mg/L

## CS(=O)(=O)c1ccccc1[I+][c-]1c(=O)oc2ccc(C(=O)O)cc2c1=O [Example 29, ((2-Methylsulfonyl)phenyl)-iodonium 6-carboxy-3,4-dihydro-2,4-dioxo-2H-benzopyran-3-ylide]
[1]; [3]
  MIC: ≤ 10 mg/L
[1]; [4]
  MIC: ≤ 10 mg/L
[2]; [5]
  MIC: > 500 mg/L
[2]; [6]
  MIC: > 500 mg/L

## CS(=O)(=O)c1ccccc1[I+][c-]1c(=O)oc2ccc(Br)cc2c1=O [Example 30, ((2-Methylsulfonyl)phenyl)-iodonium 6-bromo-3,4-dihydro-2,4-dioxo-2H-benzopyran-3-ylide]
[1]; [3]
  MIC: ≤ 10 mg/L
[1]; [4]
  MIC: ≤ 10 mg/L
[2]; [5]
  MIC: > 500 mg/L
[2]; [6]
  MIC: > 500 mg/L

## O=c1oc2ccccc2c(=O)[c-]1[I+]c1ccccc1[N+](=O)[O-] [Example 32, (2-Nitrophenyl)-iodonium 3,4-dihydro-2,4-dioxo-2H-benzopyran-3-ylide]
[1]; [3]
  MIC: ≤ 10 mg/L
[1]; [4]
  MIC: ≤ 10 mg/L
[2]; [5]
  MIC: 25 mg/L (≈ 61.1 µM)
[2]; [6]
  MIC: ≤ 10 mg/L

## COc1ccc2oc(=O)[c-]([I+]c3ccccc3[N+](=O)[O-])c(=O)c2c1 [Example 33, (2-Nitrophenyl)-iodonium 3,4-dihydro-6-methoxy-2,4-dioxo-2H-benzopyran-3-ylide]
[1]; [3]
  MIC: ≤ 10 mg/L
[1]; [4]
  MIC: ≤ 10 mg/L
[2]; [5]
  MIC: > 500 mg/L
[2]; [6]
  MIC: > 500 mg/L

## Cc1cccc2c(=O)[c-]([I+]c3ccccc3[N+](=O)[O-])c(=O)oc12 [Example 34, (2-Nitrophenyl)-iodonium 3,4-dihydro-8-methyl-2,4-dioxo-2H-benzopyran-3-ylide]
[1]; [3]
  MIC: 25 mg/L (≈ 59.1 µM)
[1]; [4]
  MIC: ≤ 10 mg/L
[2]; [5]
  MIC: 500 mg/L (≈ 1180 µM)
[2]; [6]
  MIC: 500 mg/L (≈ 1180 µM)

## CCn1c(=O)[c-]([I+]c2ccccc2[N+](=O)[O-])c(=O)n(CC)c1=S [Example 36, (2-Nitrophenyl)-iodonium 1,3-diethylhexahydro-4,6-dioxo-2-thiopyrimidin-5-ylide]
[1]; [3]
  MIC: > 500 mg/L
[1]; [4]
  MIC: > 500 mg/L
[2]; [5]
  MIC: > 500 mg/L
[2]; [6]
  MIC: 500 mg/L (≈ 1120 µM)

## O=c1[nH]c2ccccc2c(=O)[c-]1[I+]c1ccccc1[N+](=O)[O-] [Example 41, (2-Nitrophenyl)-iodonium 1,2,3,4-tetrahydro-2,4-dioxoquinolin-3-ylide]
[1]; [3]
  MIC: 500 mg/L (≈ 1230 µM)
[1]; [4]
  MIC: ≤ 10 mg/L
[2]; [5]
  MIC: > 500 mg/L
[2]; [6]
  MIC: ≤ 10 mg/L

## CS(=O)(=O)c1ccccc1[I+][c-]1c(=O)cc[nH]c1=O [Example 42, ((2-Methylsulfonyl)phenyl)-iodonium 1,2,3,4-tetrahydro-2,4-dioxopyridine3-ylide]
[1]; [3]
  MIC: 500 mg/L (≈ 1280 µM)
[1]; [4]
  MIC: 500 mg/L (≈ 1280 µM)
[2]; [5]
  MIC: > 500 mg/L
[2]; [6]
  MIC: 500 mg/L (≈ 1280 µM)

## O=c1cc[nH]c(=O)[c-]1[I+]c1ccccc1[N+](=O)[O-] [Example 43, (2-Nitrophenyl)-iodonium 1,2,3,4-tetrahydro-2,4-dioxopyridin-3-ylide]
[1]; [3]
  MIC: 500 mg/L (≈ 1400 µM)
[1]; [4]
  MIC: 50 mg/L (≈ 140 µM)
[2]; [5]
  MIC: > 500 mg/L
[2]; [6]
  MIC: 500 mg/L (≈ 1400 µM)

## O=c1[nH]c(=O)[c-]([I+]c2ccccc2[N+](=O)[O-])c(=O)[nH]1 [Example 44, (2-Nitrophenyl)-iodonium hexahydro-2,4,6-trioxo-5-pyrimidin-1-ylide]
[1]; [3]
  MIC: > 500 mg/L
[1]; [4]
  MIC: 100 mg/L (≈ 267 µM)
[2]; [5]
  MIC: 500 mg/L (≈ 1330 µM)
[2]; [6]
  MIC: 100 mg/L (≈ 267 µM)

## Cc1cc(=O)[c-]([I+]c2ccccc2S(C)(=O)=O)c(=O)o1 [Example 46, ((2-Methylsulfonyl)phenyl)-iodonium 3,4-dihydro-6-methyl-2,4-dioxo-2H-pyran-3-ylide]
[1]; [3]
  MIC: ≤ 10 mg/L
[1]; [4]
  MIC: ≤ 10 mg/L
[2]; [5]
  MIC: 50 mg/L (≈ 123 µM)
[2]; [6]
  MIC: 100 mg/L (≈ 246 µM)

## (2-Nitrophenyl)-iodonium 3,4,5,6-tetrahydro-4,6-doxo-5-pyrimidinylide [Example 35]
[2]; [7]
  MIC (AEA): > 500 ppm
